Assay results taken from US20210260064A1, “POZIOTINIB COMBINATIONS WITH AN ANTI-HER1, HER2 OR HER4 ANTIBODY AND METHODS OF USE THEREOF” (Spectrum Pharmaceuticals, Inc., priority 2018, published 2021).
Where two headings read alike, the source gives them in different places.

How the values were obtained:
BT-474 cells = experiment: Combination of poziotinib with other anticancer drugs, synergy on proliferation; type: cell-based; details: HER2-overexpressed, ER-negative breast cancer cells
MBA-MB-453 cells = experiment: as above; type: cell-based; details: HER2 overexpressed trastuzumab resistant breast cancer cells; concentrations equal to or lower than the GI50 of poziotinib alone
HER2-positive GC [1] = details: monotherapy; cited from earlier work
[2] = system: NSCLC patients having EGFR activating mutations; details: in vivo; cited from earlier work
HER2-amplified GC cells = details: in vitro; cited from earlier work
[3] = system: patients with HER2-positive GC; experiment: Phase I/II study of poziotinib combined with paclitaxel and trastuzumab: safety (TEAEs, DLT, MTD, dose adjustments); type: in vivo; details: for MTD of poziotinib: combined with paclitaxel and trastuzumab
Description: (§1) A prospective phase I/II study was conducted at 11 treatment centers in Korea. Patients with HER2-positive GC who previously had received one or more lines of chemotherapy were enrolled. Enrolled patients received oral poziotinib (8 mg or 12 mg) once daily for 14 days, followed by 7 days off.
(§2) Patients. […] Key exclusion criteria included: a history of hypersensitivity to drugs containing Cremophor® EL and trastuzumab; previous exposure to taxanes, and symptomatic central nervous system metastasis.
(§3) Treatment Procedures. […] DLTs were evaluated in 6 patients at each poziotinib dose level.
(§4) Safety Analyses and Efficacy. Adverse events (AEs) and TEAEs were evaluated using National Cancer Institute-Common Terminology Criteria for Adverse Events (version 4.03). DLTs were defined as grade […] non-hematologic toxicities (except for alopecia); grade ≥3 diarrhea, nausea and vomiting, despite maximal dosage of anti-diarrhea and/or anti-emetic medication (as applicable); and grade 4 neutropenia sustained for ≥7 days, grade 3-4 neutropenia with fever or infection, grade 4 thrombocytopenia and grade 3 thrombocytopenia sustained for 7 days, or with accompanying bleeding, or requiring transfusion. Left ventricular ejection fraction (LVEF) assessment was performed at baseline, on day 1 of the first 3 cycles and every 3 cycles thereafter. All patients who received at least one dose of poziotinib were included in the safety analysis. Tumor response was evaluated by CT or MRI of the thorax, abdomen and pelvis every 6 weeks using RECIST version 1.1, according to investigator assessment.
(§5) Statistical Analysis. The primary objective of phase I was to assess the safety and tolerability of poziotinib and to determine the MTD of poziotinib when combined with paclitaxel and trastuzumab. The primary objective of the phase II part was to assess the objective response rate (ORR) of poziotinib combined with paclitaxel and trastuzumab. The secondary objectives were to evaluate the safety and tolerability, progression-free survival (PFS), time to tumor progression (TTP) and duration of overall response (DOR).

[4] = system: patients with HER2-positive GC; experiment: Phase I/II study of poziotinib combined with paclitaxel and trastuzumab: efficacy (tumor response RECIST 1.1, survival); type: in vivo, human
Description: as §1, §2, §3, §4, §5
For phase II, it was hypothesized that an ORR <5% would be ineffective and an ORR >20% would be considered to be clinically significant. Sample size was calculated using Simon's 2-stage minimax design, with 80% power and a significance level of 5%. Of the total 27 target subjects, 13 were required in the 1st stage. If the tumor response was 0 out of 13 patients, the study was planned to be terminated early. However, if at least 1 response was observed, an additional 14 patients would be enrolled in the study.

[5] = cited from earlier work; for ORR / median PFS: monotherapy
SK-BR-3 cells = experiment: Combination of poziotinib with other anticancer drugs, synergy on proliferation; type: cell-based; details: HER2-overexpressed and ER-negative
MDA-MB-361 cells = experiment: as above; type: cell-based; details: HER2-overexpressed, ER-positive, trastuzumab resistant
MCF-7 cells = experiment: as above; type: cell-based; details: not HER1 and HER2-overexpressed and ER-positive
MDA-MB-468 cells = experiment: as above; type: cell-based; details: HER2 negative, ER-negative, HER1-overexpressed triple negative breast cancer cells
[6] = system: HER2-positive breast cancer; details: in combination with docetaxel plus trastuzumab; cited from earlier work
HER2-positive GC [7] = details: in combination with chemotherapy; cited from earlier work
[8] = system: patients with HER2-positive GC; details: patients who failed prior fluoropyrimidine and platinum, cited from earlier work
[9] = All patients, Phase I 12 mg (5)
[10] = All patients, Phase I Total (12)
[11] = All patients, Phase II RD: 8 mg (32)
[12] = All patients, Total population Total (44)
[13] = Trastuzumab-naïve patients, Phase I 8 mg (n 3)
[14] = Trastuzumab-naïve patients, Phase I Total (n 3)
[15] = Trastuzumab-naïve patients, Phase II RD: 8 mg (n 8)
[16] = Trastuzumab-naïve patients, Total population (n 11)
[17] = Trastuzumab-pretreated Patients, Phase I 8 mg (n 4)
[18] = Trastuzumab-pretreated Patients, Phase I 12 mg (n 5)
[19] = Trastuzumab-pretreated Patients, Phase I Total (n 9)
[20] = Trastuzumab-pretreated Patients, Phase II RD: 8 mg (n 24)
[21] = Trastuzumab-pretreated Patients, Total population (n 33)

## O=c1[nH]cc(F)c(=O)[nH]1 [5-FU, 5-fluorouracil]
BT-474 cells
  synergistic effect when combined with poziotinib: high synergistic effect
MBA-MB-453 cells
  synergistic effect when combined with poziotinib: excellent synergistic effect

## N.N.[Cl][Pt][Cl] [cisplatin]
BT-474 cells
  synergistic effect when combined with poziotinib: high synergistic effect
MBA-MB-453 cells
  synergistic effect when combined with poziotinib: excellent synergistic effect

## COc1cc2ncnc(Nc3ccc(F)c(Cl)c3)c2cc1NC(=O)/C=C/CN1CCCCC1 [dacomitinib]
HER2-positive GC [1]
  ORR: 7.4%
  median PFS: 2.1 months

## C#Cc1cccc(Nc2ncnc3cc(OCCOC)c(OCCOC)cc23)c1 [erlotinib]
[2]
  Patients observed to be resistant due to the EGFR T790M mutation: about 60%

## CS(=O)(=O)CCNCc1ccc(-c2ccc3ncnc(Nc4ccc(OCc5cccc(F)c5)c(Cl)c4)c3c2)o1 [lapatinib]
HER2-amplified GC cells
  anti-tumor activity of dual blockade with trastuzumab: highly synergistic anti-tumor activity

## CC(=O)O[C@H]1C(=O)[C@@]2(C)[C@H]([C@H](OC(=O)c3ccccc3)[C@]3(O)C[C@H](OC(=O)[C@H](O)[C@@H](NC(=O)c4ccccc4)c4ccccc4)C(C)=C1C3(C)C)[C@]1(OC(C)=O)CO[C@@H]1C[C@@H]2O [paclitaxel]
BT-474 cells
  synergistic effect when combined with poziotinib: high synergistic effect
MBA-MB-453 cells
  synergistic effect when combined with poziotinib: excellent synergistic effect

## C=CC(=O)N1CCC(Oc2cc3c(Nc4ccc(Cl)c(Cl)c4F)ncnc3cc2OC)CC1 [poziotinib, 1-[4-[4-(3,4-dichloro-2-fluorophenylaminino)-7-methoxyquinazolin-6-yloxy]-piperidin-1-yl]prop-2-en-1-one]
[3]; Phase I 12 mg (n = 5)
  TEAEs by Maximum Severity: Grade 5 (death): 0 n
  TEAEs leading to death: 0 n
[3]; Phase I part of the current study
  MTD of poziotinib: 8 mg/day
[3]; Phase I, once daily 14 days, 7 days off
  MTD of poziotinib: 8 mg
[3]; human, in vivo
  AE related to poziotinib: Fatigue: 0 n
  AE related to poziotinib: Myalgia: 0 n
  AE related to poziotinib: Vomiting: 0 n
  Left ventricular systolic dysfunction (LVSD): no grade 3 or 4 left ventricular systolic dysfunction
  TEAE ≥Grade 3: Abdominal pain: 0 n
  TEAE ≥Grade 3: Mucosal inflammation: 0 n
  TEAE ≥Grade 3: Pruritus: 0 n
  TEAE ≥Grade 3: Rash: 0 n
  TEAE ≥Grade 3: Stomatitis: 0 n
  TEAEs by Maximum Severity: Grade 1 (mild): 0 n
[4]; All patients, Phase I 8 mg (7)
  Overall survival, Median: 30.6 weeks
  Progression free survival, Median: 17.1 weeks
  Time to tumor progression, Median: 18.2 weeks
[4]; [9]
  Overall survival, Median: 19.9 weeks
  Progression free survival, Median: 17.7 weeks
  Time to tumor progression, Median: 17.7 weeks
[4]; [10]
  Overall survival, Median: 30.6 weeks
  Progression free survival, Median: 17,7 weeks
  Time to tumor progression, Median: 17.9 weeks
[4]; [11]
  Overall survival, Median: 29.5 weeks
  Progression free survival, Median: 13.0 weeks
  Time to tumor progression, Median: 15.0 weeks
[4]; [12]
  Overall survival, Median: 29.5 weeks
  Progression free survival, Median: 16.0 weeks
  Time to tumor progression, Median: 17.1 weeks
[4]; Phase I 8 mg (n = 7)
  Best overall response: CR: 0 n
[4]; Phase I 8 mg, 2 patients
  Duration of overall response, Median: 14.5 weeks
[4]; Phase I 12 mg (n = 5)
  Best overall response: CR: 0 n
  Best overall response: unknown: 0 n
[4]; Phase I 12 mg, 2 patients
  Duration of overall response, Median: 20.4 weeks
[4]; Phase I Total
  Duration of overall response, Median: 15.0 weeks
[4]; Phase I Total (n = 12)
  Best overall response: CR: 0 n
[4]; Phase II
  Patients with tumor shrinkage: Twenty
[4]; Phase II RD: 8 mg, 7 patients
  Duration of overall response, Median: 26.8 weeks
[4]; [13]
  Overall survival, Median: 194.9 weeks
  Progression free survival, Median: 30.6 weeks
[4]; [14]
  Overall survival, Median: 194.9 weeks
  Progression free survival, Median: 30.6 weeks
[4]; [15]
  Disease control rate: 5 n
  Overall survival, Median: 42.6 weeks
  Progression free survival, Median: 18.7 weeks
[4]; [16]
  Overall survival, Median: 59.2 weeks
  Progression free survival, Median: 20.7 weeks
[4]; [17]
  Overall survival, Median: 30.6 weeks
  Progression free survival, Median: 15.5 weeks
[4]; [18]
  Overall survival, Median: 19.9 weeks
  Progression free survival, Median: 17.7 weeks
[4]; [19]
  Overall survival, Median: 21.1 weeks
  Progression free survival, Median: 17.7 weeks
[4]; [20]
  Overall survival, Median: 29.5 weeks
  Progression free survival, Median: 13.0 weeks
[4]; [21]
  Overall survival, Median: 29.5 weeks
  Progression free survival, Median: 15.0 weeks
[5]; continuous dosing
  MTD of poziotinib as monotherapy: 18 mg/day
[5]; intermittent dosing (14 days on and 7 days off)
  MTD of poziotinib as monotherapy: 24 mg/day
[5]; continuous dosing schedule
  ORR: 21%
  median PFS: 9.0 weeks
[5]; intermittent dosing schedule
  ORR: 16%
  median PFS: 12.0 weeks

## CCC1=C[C@@H]2CN(C1)Cc1c([nH]c3ccccc13)[C@@](C(=O)OC)(c1cc3c(cc1OC)N(C)[C@H]1[C@@](O)(C(=O)OC)[C@H](OC(C)=O)[C@]4(CC)C=CCN5CC[C@]31[C@@H]54)C2 [vinorelbine]
BT-474 cells
  synergistic effect when combined with poziotinib: synergistic effect was not observed
SK-BR-3 cells
  synergistic effect when combined with poziotinib: sufficient effect was observed to indicate synergy
MDA-MB-361 cells
  synergistic effect when combined with poziotinib: synergistic effect at some concentrations
MCF-7 cells
  synergistic effect when combined with poziotinib: synergy at every concentration
MDA-MB-468 cells
  synergistic effect when combined with poziotinib: synergistic effect was observed

## pertuzumab: anti-HER2 antibody used for dual blockade with trastuzumab
[6]
  Effect on OS: significantly increased OS
HER2-positive GC [7]
  Effect on OS: did not extend OS

## trastuzumab emtansine
[8]
  ORR: 20.6%
[8]; phase III
  Efficacy compared with paclitaxel: not superior to paclitaxel
